# Data as given in patent US20040067952A1, “Method and composition for treatment of cancer” (priority 2001, published 2004).
# Where two headings read alike, the source gives them in different places.
# How the values were obtained:
# Hep3-B = assay: [3H]Thymidine incorporation assay, Hep3-B; type: cell-based; settings: Homo sapiens, Hep3B, Hep3-β, 5 days, read-out: % inhibition of [3H] thymidine incorporation (compared to control)
# Procedure: (§1) Method: [^3H]Thymidine incorporation assay was employed to study the effect of clofazimine on cell proliferation. Here, adherent cells (5/000-10/000) were plated into 24-well Corning tissue culture dishes and exposed to culture medium (MEM 5% FBS) containing the vehicle or different concentrations of clofazimine (10^-9 to 10^-5 moles per liter). For Novikoff which is a detached rat cell line, 2000 cells were suspended in 2 ml of DMEM (5%FBS) and kept under the same condition as for attached cells. Media were replaced with fresh media on alternate days. […] The amount of radioactivity incorporated was determined using β-scintillation counter (18). Results are presented as the actual counts per minute against the concentration of the drug used in the culture media or as % inhibition (reduction in thymidine incorporation compared to controls). Treatment of different liver cancer cell lines, HUH-7, HepG2, SKHEP-1, Hep3-B (human cell lines) and Novikoff (rat cell line) with clofazimine led to dose-dependent inhibition of [3H]thymidine incorporation by these cells (Table 1 and FIG. 1). Values represent mean±s.e.m of % inhibition of [3H] thymidine incorporation (compared to control) for each cell line when treated for 5 days with different concentrations of clofazimine.
# LOVO = assay: [3H]thymidine incorporation, LOVO colorectal cancer cells; type: cell-based, human; settings: 5 day treatment
# Procedure: FIG. 8: [3H]thymidine incorporation expressed as counts per minute in LOVO cells (colorectal cancer cell line) treated in culture for 5 days with different concentrations of clofazimine.
# Method: [^3H]Thymidine incorporation assay was employed to study the effect of clofazimine on cell proliferation. Here, adherent cells (5/000-10/000) were plated into 24-well Corning tissue culture dishes and exposed to culture medium (MEM 5% FBS) containing the vehicle or different concentrations of clofazimine (10^−9 to 10^−5 moles per liter). For Novikoff which is a detached rat cell line, 2000 cells were suspended in 2 ml of DMEM (5%FBS) and kept under the same condition as for attached cells. Media were replaced with fresh media on alternate days. At the end of the treatment period (5-10 days), cell cultures were assayed for thymidine incorporation by the addition of 0.5 μCi of [3H]thymiydine to each well for the last 4 h of culture. The amount of radioactivity incorporated was determined using β-scintillation counter (18). Results are presented as the actual counts per minute against the concentration of the drug used in the culture media or as % inhibition (reduction in thymidine incorporation compared to controls). […]
# HCC = HCC patients, cited from earlier work
# Novikoff = assay: [3H]Thymidine incorporation assay, Novikoff; type: cell-based; settings: Rattus norvegicus, 5 days, read-out: % inhibition of [3H] thymidine incorporation (compared to control)
# Procedure: as §1
# HUH-7 = assay: [3H]Thymidine incorporation assay, HUH-7; type: cell-based; settings: Homo sapiens, 5 days, read-out: % inhibition of [3H] thymidine incorporation (compared to control)
# Procedure: as §1
# [1] = reference 9; cited from earlier work
# HepG2 = assay: [3H]Thymidine incorporation assay, HepG2; type: cell-based; settings: Homo sapiens, 5 days, read-out: % inhibition of [3H] thymidine incorporation (compared to control)
# Procedure: as §1
# [2] = Solubility and stability in lipiodol; type: physicochemical
# SKHEP-1 = assay: [3H]Thymidine incorporation assay, SKHEP-1; type: cell-based; settings: Homo sapiens, SK-HEP1, 5 days, read-out: % inhibition of [3H] thymidine incorporation (compared to control)
# Procedure: as §1
# C-170 = assay: [3H]thymidine incorporation, C-170 colorectal cancer cells; type: cell-based; settings: Homo sapiens, C170, 120 h; C-170, 1 μM clofazimine, 5 day treatment period; read-out: inhibition of cell proliferation
# Procedure: Method: [^3H]Thymidine incorporation assay was employed to study the effect of clofazimine on cell proliferation. Here, adherent cells (5/000-10/000) were plated into 24-well Corning tissue culture dishes and exposed to culture medium (MEM 5% FBS) containing the vehicle or different concentrations of clofazimine (10^−9 to 10^−5 moles per liter). For Novikoff which is a detached rat cell line, 2000 cells were suspended in 2 ml of DMEM (5%FBS) and kept under the same condition as for attached cells. Media were replaced with fresh media on alternate days. At the end of the treatment period (5-10 days), cell cultures were assayed for thymidine incorporation by the addition of 0.5 μCi of [3H]thymiydine to each well for the last 4 h of culture. The amount of radioactivity incorporated was determined using β-scintillation counter (18). Results are presented as the actual counts per minute against the concentration of the drug used in the culture media or as % inhibition (reduction in thymidine incorporation compared to controls). Treatment of different liver cancer cell lines, HUH-7, HepG2, SKHEP-1, Hep3-B (human cell lines) and Novikoff (rat cell line) with clofazimine led to dose-dependent inhibition of [3H]thymidine incorporation by these cells (Table 1 and FIG. 1).
# HT-29 = assay: [3H]thymidine incorporation, HT-29 colorectal cancer cells; type: cell-based; settings: Homo sapiens, 120 h; HT-29, 1 μM clofazimine, 5 day treatment period; read-out: inhibition of cell proliferation
smiles,measurement,setting,value
"CC(C)/N=c1/cc2n(-c3ccc(Cl)cc3)c3ccccc3nc-2cc1Nc1ccc(Cl)cc1 [clofazimine, 3-(4-chloroanilino)-10-(4-chlorophenyl)-2, 10-dihydro-2-(isopropylimino)-phenazine]",inhibition at 0.01 µM,Hep3-B; clofazimine 0.01 μM,28.4 ± 7.4%
same,inhibition at 0.1 µM,Hep3-B; clofazimine 0.1 μM,62.3 ± 3.1%
same,inhibition at 0.5 µM,Hep3-B; clofazimine 0.5 μM,91.6 ± 1.1%
same,inhibition at 1 µM,Hep3-B; clofazimine 1.0 μM,94.3 ± 0.07%
same,inhibition at 5 µM,Hep3-B; clofazimine 5.0 μM,95.4 ± 1.4%
same,inhibition of proliferation as measured by [3H]thymidine incorporation,LOVO,profound inhibition of proliferation
same,objective response,"HCC; clofazimine alone, Falkson et al.",no objective response
same,objective response,"HCC; oral clofazimine, 3/30, Ruff et al.",10%
same,stabilization of the disease,"HCC; oral clofazimine, 13/30, for up to 20 months, Ruff et al.",43%
same,inhibition at 0.01 µM,Novikoff; clofazimine 0.01 μM,0%
same,inhibition at 0.1 µM,Novikoff; clofazimine 0.1 μM,0%
same,inhibition at 0.5 µM,Novikoff; clofazimine 0.5 μM,11.7 ± 3.3%
same,inhibition at 1 µM,Novikoff; clofazimine 1.0 μM,18.9 ± 2.9%
same,inhibition at 5 µM,Novikoff; clofazimine 5.0 μM,42.7 ± 4.1%
same,inhibition at 0.01 µM,"HUH-7; HUH-7, clofazimine 0.01 μM",0%
same,inhibition at 0.1 µM,"HUH-7; HUH-7, clofazimine 0.1 μM",38.3 ± 7.2%
same,inhibition at 0.5 µM,"HUH-7; HUH-7, clofazimine 0.5 μM",51.1 ± 3.4%
same,inhibition at 1 µM,"HUH-7; HUH-7, clofazimine 1.0 μM",88.9 ± 1.1%
same,inhibition at 5 µM,"HUH-7; HUH-7, clofazimine 5.0 μM",96.7 ± 0.9%
same,log p (octanol/water),[1],7.4
same,inhibition at 0.01 µM,"HepG2; HepG2, clofazimine 0.01 μM",21 ± 1.9%
same,inhibition at 0.1 µM,"HepG2; HepG2, clofazimine 0.1 μM",38.2 ± 2.2%
same,inhibition at 0.5 µM,"HepG2; HepG2, clofazimine 0.5 μM",52.9 ± 4.7%
same,inhibition at 1 µM,"HepG2; HepG2, clofazimine 1.0 μM",75.6 ± 2.7%
same,inhibition at 5 µM,"HepG2; HepG2, clofazimine 5.0 μM",92.4 ± 1.9%
same,solubility in lipiodol,[2],highly soluble
same,stability in lipiodol,[2],stable
same,inhibition at 0.01 µM,"SKHEP-1; SKHEP-1, clofazimine 0.01 μM",30.3 ± 2.9%
same,inhibition at 0.1 µM,"SKHEP-1; SKHEP-1, clofazimine 0.1 μM",62.7 ± 7.1%
same,inhibition at 0.5 µM,"SKHEP-1; SKHEP-1, clofazimine 0.5 μM",69 ± 3.2%
same,inhibition at 1 µM,"SKHEP-1; SKHEP-1, clofazimine 1.0 μM",70.9 ± 2.1%
same,inhibition at 5 µM,"SKHEP-1; SKHEP-1, clofazimine 5.0 μM",97.1 ± 1.7%
same,inhibition at 1 µM,C-170,> 70%
same,inhibition at 1 µM,HT-29,> 70%
